In patent publication US9624167B2, “N-(4-hydroxy-4-methyl-cyclohexyl)-4-phenyl-benzenesulfonamides and N-(4-hydroxy-4-methyl-cyclohexyl)-4-(2-pyridyl)benzenesulfonamides and their therapeutic use” (PIMCO 2664 LIMITED, priority 2013, dated 2017):
Read-outs that look alike come from different tables or passages of the source.

How the values were obtained:
[1] = Rodent pharmacokinetics study; assay type: in vivo, Sprague-Dawley rats; conditions: rat
Experimental: Absorption and metabolic stability were studied using an in vivo pharmacokinetics assay.
Three male Sprague-Dawley rats, aged 8-12 weeks, were dosed with test compounds administered either orally or intravenously (dose level of 1 mg/kg body weight intravenous or 5 mg/kg body weight orally). Test compounds were formulated in 0.5% carboxymethylcellulose (CMC)/0.1% Tween-80 for administration via the oral route, or in 5% DMSO/10% solutol in saline for administration via the intravenous route. For compound HMC-C-01-A the oral administration was formulated in 2% dimethylacetamide/20% hydroxypropyl-β-cyclodextrin in water. Animals were given free access to food throughout the study except for fasting overnight and until 2 hours post dose on the day of dosing.
Blood samples were taken from the retro-orbital plexus at the following time points and placed in microtubes containing 20% K2EDTA solution:
Oral Dosing: predose; 0.25, 0.5, 1, 2, 4, 6, 8, and 24 hours post dose.
Intravenous Dosing: predose; 0.08, 0.25, 0.5, 1, 2, 4, 8, and 24 hours post dose.
Blood samples were centrifuged to obtain plasma, which was transferred to a separate container and frozen at −20° C.
For analysis, samples were thawed at room temperature and prepared by protein precipitation with acetonitrile spiked with internal standard (500 ng/mL glipizide) in the ratio 1:4 with plasma. The samples were then vortexed for 5 minutes and centrifuged for 10 minutes at 20,600×g at 4° C. 100 μL of the supernatant was collected for analysis. The standard samples were prepared similarly, after spiking blank rat plasma samples with 10 μL of analyte.
The pharmacokinetic parameters for the test compounds were calculated by Phoenix WinNonlin version 6.3 (Pharsight Corp, CA) using standard non-compartmental methods. Peak plasma concentrations (Cmax) and time of the peak plasma concentration (Tmax) were the observed values. The area under the plasma concentration-time curve (AUC) was determined by use of the linear trapezoidal rule up to the last measurable concentration (AUClast) and thereafter by extrapolation of the terminal elimination phase to infinity (AUCinf). The terminal elimination rate constant (kel) was determined by regression analysis of the linear terminal portion of the log plasma concentration-time curve. The elimination phase half-life (t1/2) was calculated as 0.693/kel.

[2] = Rodent pharmacokinetics study; assay type: in vivo, Sprague-Dawley rats; conditions: rat, dosed at 2 mg/kg intravenously (†)
J774 macrophages = assay: Resazurin Macrophage J774 Viability Assay; assay type: cell-based; conditions: Mus musculus, 12 point concentration range 10 μM to 0.5 nM, n = 4 replicates, mean of 3 independent experiments, 72 hour incubation, read-out: IC50 (2)
hERG ion channel = molecular target: T1, hERG ion channel (Homo sapiens, UniProt Q12809); assay: hERG Ion Channel Assay (Q-patch, hERG-CHO cells); assay type: cell-based; conditions: hERG tail current, hERG-CHO cells, Q-patch; read-out: IC50 (1)
T1 construct: expressed in transfected cells; host or cells: Chinese Hamster Ovary cells (hERG-CHO), stably transfected
T1 sequence (Q12809 whole entry): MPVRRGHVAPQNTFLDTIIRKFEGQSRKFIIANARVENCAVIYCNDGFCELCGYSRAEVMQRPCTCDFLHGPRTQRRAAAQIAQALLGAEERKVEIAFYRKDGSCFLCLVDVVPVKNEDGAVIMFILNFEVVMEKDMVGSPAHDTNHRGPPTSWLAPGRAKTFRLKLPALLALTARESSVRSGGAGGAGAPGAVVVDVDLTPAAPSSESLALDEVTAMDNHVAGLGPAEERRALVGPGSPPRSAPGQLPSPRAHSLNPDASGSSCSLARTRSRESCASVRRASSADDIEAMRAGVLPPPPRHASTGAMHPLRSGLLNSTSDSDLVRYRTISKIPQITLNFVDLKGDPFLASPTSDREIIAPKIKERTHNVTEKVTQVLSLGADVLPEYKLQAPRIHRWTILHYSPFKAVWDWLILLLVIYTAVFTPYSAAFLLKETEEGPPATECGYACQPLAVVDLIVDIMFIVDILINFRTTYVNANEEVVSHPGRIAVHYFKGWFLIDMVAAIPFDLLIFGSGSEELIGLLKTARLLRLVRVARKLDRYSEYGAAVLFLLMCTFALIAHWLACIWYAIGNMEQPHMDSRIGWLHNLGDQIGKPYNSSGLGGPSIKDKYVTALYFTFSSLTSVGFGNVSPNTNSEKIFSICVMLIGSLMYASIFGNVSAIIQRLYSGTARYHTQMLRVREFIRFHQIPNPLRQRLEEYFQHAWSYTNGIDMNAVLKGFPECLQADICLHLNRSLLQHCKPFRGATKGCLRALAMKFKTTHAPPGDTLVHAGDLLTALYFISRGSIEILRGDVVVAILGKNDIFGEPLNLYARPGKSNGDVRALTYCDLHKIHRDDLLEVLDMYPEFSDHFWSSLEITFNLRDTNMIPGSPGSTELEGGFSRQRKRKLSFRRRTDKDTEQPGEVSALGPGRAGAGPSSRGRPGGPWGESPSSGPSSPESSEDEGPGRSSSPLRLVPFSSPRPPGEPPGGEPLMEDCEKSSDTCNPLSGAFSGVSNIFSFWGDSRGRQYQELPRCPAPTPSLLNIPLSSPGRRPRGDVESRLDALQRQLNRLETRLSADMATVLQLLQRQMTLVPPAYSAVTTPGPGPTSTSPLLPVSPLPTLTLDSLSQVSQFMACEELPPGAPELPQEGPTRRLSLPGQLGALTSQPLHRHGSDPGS
How it was run: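 Automated whole-cell Q-patch on hERG-CHO cells (held at 30° C for 24–48 h beforehand), −80 mV holding, +20 mV for 2 s then −40 mV for 1 s to elicit tail current every 5 s. Cumulative rising concentrations, 5 min each; percent tail-current inhibition fitted to three-parameter logistic for IC50.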

[3] = Maximum Tolerated Dose, Sprague-Dawley rats; conditions: rat, in vivo, oral, ascending dose
Experimental: The acute safety of the compounds was assessed in rats in order to enable determination of the maximum tolerated dose (MTD), an indication of a compound's safety in animals. The higher the MTD, the greater is the potential safety of the compound being tested.
Two male and two female Sprague-Dawley rats, aged 8-12 weeks, were dosed at each dose level in an ascending dose study design. The test compounds were administered orally as a suspension formulated in 0.5% carboxymethylcellulose (CMC)/0.1% Tween-80 in a dose volume of 10 mL/kg. Animals were given free access to food throughout the study.
Animals were observed on at least two occasions during the first hour following dosing, approximately 30 minutes apart, and thereafter at hourly intervals for the remainder of the dosing day for at least 4 hours. […] The nature and severity, where appropriate, of the clinical signs and time were recorded at each observation. Observations included changes in the skin, fur, eyes, and mucous membranes, and also the respiratory, circulatory, autonomic, and central nervous system, as well as somatomotor activity and behaviour pattern. Particular attention was directed towards the observation of tremors, convulsions, salivation, diarrhoea, lethargy, sleep, and coma.
At the completion of the study, the results were expressed as the maximum tolerated dose for each compound, this being the highest of each without unacceptable toxicity.
The maximum dose without unacceptable side-effects was determined to be the MTD (expressed in mg/kg).

C[C@]1(O)CC[C@H](NS(=O)(=O)c2ccc(-c3ncc(Cl)cc3Cl)cc2)CC1 [HMC-N-03-A, 4-(3,5-Dichloropyridin-2-yl)-N-((1r,4r)-4-hydroxy-4-methylcyclohexyl)benzenesulfonamide]
half-life ([1]; male, Sprague-Dawley, plasma, elimination phase half-life): 3.1 h
p.o. AUC ([1]; oral 5 mg/kg in 0.5% CMC/0.1% Tween-80 (HMC-C-01-A in 2% dimethylacetamide/20% hydroxypropyl-β-cyclodextrin)): 16 ng·h/mL
Bioavail, F ([1]; tentative oral bioavailability, F=AUC(p.o.)×Dose(i.v.)/AUC(i.v.)×Dose(p.o.)): 8%
i.v. AUC [2]: 5102 ng·min/mL
IC50 (J774 macrophages): 620 nM
IC50 (hERG ion channel): > 30000 nM
MTD ([3]; female Sprague-Dawley rats, read-out: Maximum tolerated dose, Females): 50 mg/kg
MTD ([3]; male Sprague-Dawley rats, read-out: Maximum tolerated dose, Males): 50 mg/kg
